Where two headings read alike, the source gives them in different places.
Columns and labels:
BuChE from horse serum = target: T1, BuChE from horse serum (Equus caballus, UniProt P81908); test: biochemical; type: biochemical; conditions: for inhibition at 20 µM: read-out: BuChE % inhibition at 20 µM
T1 construct: BuChE from horse serum (C4290-1KU; Sigma); purchased Sigma C4290-1KU; host or cells: horse serum
Procedure: (§1) According to Ellman's method, assays were carried out on AChE from electric eel (C3389-500UN; Sigma) and BuChE from horse serum (C4290-1KU; Sigma). On a final volume of 500 μL, the experiment was carried out in 48-well plates. EeAChE or eqBuChE, 0.036 U/mL, and 0.1 M pH 8 phosphate buffer were added to each well. At 37 °C, they were pre-incubated for 20 min at various chemical concentrations. […] Along with the enzymatic breakdown of ACh or BuCh, the DTNB creates the yellow anion 5-thio-2-nitrobenzoic acid. In a Biotek Synergy HTX Multi-Mode reader, changes in absorbance were detected at 410 nm. Inhibition curves were used to calculate the IC50 values (log inhibitor concentration vs percent of inhibition). The same conditions were used in a control experiment without the inhibitor, and the blank comprised buffer, DMSO, DTNB, and substrate.
(§2) The IC50 values were calculated by SPSS 17.0.

AChE from electric eel = target: T2, AChE from electric eel (Electrophorus electricus, UniProt O42275); test: EeAChE inhibition assay (Ellman's method); type: biochemical; conditions: for inhibition at 20 µM: read-out: AChE % inhibition at 20 µM, 20 µM, na = no inhibitory activity at 20 µM; for IC50: mean ± SEM; for AChE % inhibition at 20 µM: na = no inhibitory activity at 20 µM
T2 construct: AChE from electric eel (C3389-500UN; Sigma); purchased Sigma C3389-500UN
Procedure: as §1, §2

male ICR mice = conditions: Aβ1–42 10 µg icv, K3 10 mg/kg po, donepezil 15 mg/kg po, Day 3 to Day 14
Text: The National Institutes of Health Guide for the Care and Use of Laboratory Animals was followed for all experiments. The Animal Care and Use Committee of Anhui Medical University adopted the Measures for the Care and Treatment of Laboratory Animals. In Anhui Medical University's animal centre, male ICR mice were employed (Hefei). […] Throughout all of the experiments, the room's ambient temperature and relative humidity (50%) remained constant. […] 8‒10 animals were used in each study group. The experimental time was from 08: 00 to 14: 00, and the mice were sacrificed by cervical dislocation shortly after the experiment ended. […] Aβ1–42 aggregation was induced by dissolving the Aβ1–42 peptide in DMSO as a stock solution of 5 mM and incubating it in saline at a final concentration of 2 mg/mL for 24 h at 37 °C.

in vitro = conditions: PAMPA; for Papp: pH 7.4
Text: Based on prior work[40]^,[41], a parallel artificial membrane permeation assay (PAMPA) for the blood-brain barrier (BBB) was used to determine the ability of the test chemical to penetrate into the brain. Six commercial medicines were purchased from Aladdin Reagents to validate the methodology. Energy Chemical provided the DMSO and dodecane. Avanti Polar Lipids provided the porcine brain lipid (PBL). Millipore provided the donor 96-well filter microplate with a PVDF membrane (pore size […]) and the acceptor indented 96-well microplate. Corning Inc. provided the 96-well UV plate (COSTAR). DMSO was used to dissolve commercial medications and test compounds at a concentration of 20 mg/mL. They were then diluted 200 times in a solution of PBS (pH 7.4 ± 0.1)/EtOH (70/30, v/v) to achieve a final concentration of 100 µg/mL. The donor microplate's fifilter membrane was coated with 4 µL of PBL in dodecane (20 mg/mL). The donor wells were then filled with 200 µL of diluted chemical solution and 300 µL of PBS/EtOH (70/30, v/v). To make the membrane contact with buffer solution, the donor fifilter plate was carefully positioned on top of the acceptor plate to form a “sandwich” assembly. At 25 °C, the sandwich was left undisturbed. The donor plate was carefully removed after 18 h of incubation, and the concentrations of test chemicals in the donor and acceptor wells were quantified using a UV plate spectroscopic reader (PerkinElmer VICTOR Nivo, Finland). Each sample was analysed at three wavelengths, in at least three independent experiments, in four wells.
Pe, permeability, refers to the ability of compounds to permeate the membranes through passive diffusion in the blood-brain barrier penetration assays.

[1] = BuChE from horse serum, 20 µM, na = no inhibitory activity at 20 µM

T2 sequence (O42275 24-633): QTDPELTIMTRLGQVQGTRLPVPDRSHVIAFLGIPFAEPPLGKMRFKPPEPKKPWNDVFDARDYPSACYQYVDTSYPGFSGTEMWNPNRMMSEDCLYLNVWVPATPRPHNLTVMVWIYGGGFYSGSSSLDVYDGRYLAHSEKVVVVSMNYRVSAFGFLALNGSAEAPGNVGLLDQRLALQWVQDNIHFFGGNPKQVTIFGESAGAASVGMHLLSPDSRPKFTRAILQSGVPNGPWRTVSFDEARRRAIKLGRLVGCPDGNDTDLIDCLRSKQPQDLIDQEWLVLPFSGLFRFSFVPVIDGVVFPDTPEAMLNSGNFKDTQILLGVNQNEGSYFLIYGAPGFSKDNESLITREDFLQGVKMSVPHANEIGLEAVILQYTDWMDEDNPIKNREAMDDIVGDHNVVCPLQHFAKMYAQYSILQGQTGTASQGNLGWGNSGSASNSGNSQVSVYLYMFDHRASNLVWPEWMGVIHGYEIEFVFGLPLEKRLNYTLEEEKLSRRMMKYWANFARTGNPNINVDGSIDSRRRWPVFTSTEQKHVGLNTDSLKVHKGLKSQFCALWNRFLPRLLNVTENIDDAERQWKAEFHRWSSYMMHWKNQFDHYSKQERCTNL
T1 sequence (P81908 whole entry): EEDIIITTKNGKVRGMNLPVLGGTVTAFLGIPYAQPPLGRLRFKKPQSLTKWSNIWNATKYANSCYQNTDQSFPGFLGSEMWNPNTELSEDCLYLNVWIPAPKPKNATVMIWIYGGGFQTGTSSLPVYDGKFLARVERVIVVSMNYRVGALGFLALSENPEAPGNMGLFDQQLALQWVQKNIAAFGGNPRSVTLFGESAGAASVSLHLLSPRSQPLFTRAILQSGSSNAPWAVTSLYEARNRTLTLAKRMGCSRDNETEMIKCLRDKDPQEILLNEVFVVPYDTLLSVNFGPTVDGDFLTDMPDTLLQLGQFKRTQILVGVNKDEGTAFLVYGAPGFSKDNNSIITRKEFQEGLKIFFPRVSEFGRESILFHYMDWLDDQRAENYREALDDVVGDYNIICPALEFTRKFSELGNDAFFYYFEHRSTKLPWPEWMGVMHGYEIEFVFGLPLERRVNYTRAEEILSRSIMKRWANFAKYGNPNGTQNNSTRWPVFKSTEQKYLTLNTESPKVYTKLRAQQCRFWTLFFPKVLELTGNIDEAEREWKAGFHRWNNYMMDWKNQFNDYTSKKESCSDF

Structure (SMILES) | IC50 (BuChE from horse serum) | inhibition at 20 µM (AChE from electric eel) | further results
CC(C)c1cc(OS(=O)(=O)F)n(-c2ccccc2)n1 [Compound K20] | 11.25 ± 0.11 µM | 41.6 ± 0.7% | –
Cc1cc(OS(=O)(=O)F)n(-c2ccc(Cl)cc2)n1 [Compound K15] | 5.26 ± 0.39 µM | 45.2 ± 1.3% | –
COc1cc2c(cc1OC)C(=O)C(CC1CCN(Cc3ccccc3)CC1)C2 (stereo not shown) [Donepezil, reference compound] | – | – | effect on Aβ1–42-induced cognitive dysfunction (MWM) (male ICR mice): significantly improved
O=C1CC(c2ccccc2)=NN1c1ccc(F)cc1 [Compound M2] | – | 37 ± 3.3% | inhibition at 20 µM (BuChE from horse serum; [1]): 27.7 ± 11.7%
COc1ccc(-n2nc(-c3ccccc3)cc2OS(=O)(=O)F)cc1 [Compound K6] | – | 25.7 ± 1.5% | inhibition at 20 µM (BuChE from horse serum): 47.9 ± 1.9%
Cc1ccc(-n2nc(C(C)C)cc2OS(=O)(=O)F)cc1C [Compound K23] | 3.98 ± 0.09 µM | 21.4 ± 1.1% | –
O=C1CC(c2ccccc2)=NN1c1ccccc1 [Compound M1] | – | 8.8 ± 2.6% | –
Cc1ccc(-n2nc(-c3ccccc3)cc2OS(=O)(=O)F)cc1C [Compound K5] | 2.23 ± 0.31 µM | 24.4 ± 2.1% | –
Cc1ccc(-n2nc(-c3ccccc3)cc2OS(=O)(=O)F)cc1 [Compound K4] | 2.35 ± 1.02 µM | 25.9 ± 0.9% | –
CC(=O)[C@H]1CC[C@H]2[C@@H]3CCC4=CC(=O)CC[C@]4(C)[C@H]3CC[C@]12C [Progesterone] | – | – | Papp (in vitro): 8.1 ×10⁻⁶ cm/s
Cc1cc(OS(=O)(=O)F)n(C(C)(C)C)n1 [Compound K19] | – | – | BuChE % inhibition at 20 µM (BuChE from horse serum; [1]): no activity
O=S(=O)(F)Oc1cc(-c2ccccc2)nn1-c1ccccn1 [Compound K7] | 9.89 ± 0.87 µM | – | IC50 (AChE from electric eel): 19.39 ± 0.01 µM
Clc1cccc(Cl)c1N=C1NCCN1 [Clonidine] | – | – | BBB penetration (in vitro): CNS+; Papp (in vitro): 8.3 ×10⁻⁶ cm/s
Cc1nn(-c2ccccc2)c(OS(=O)(=O)F)c1C [Compound K11] | – | – | BuChE % inhibition at 20 µM (BuChE from horse serum; [1]): 45.2 ± 1.8%; AChE % inhibition at 20 µM (AChE from electric eel): 7.2 ± 1.0%
CC(C)(C)n1nc(-c2ccccc2)cc1OS(=O)(=O)F [Compound K9] | – | – | BuChE % inhibition at 20 µM (BuChE from horse serum; [1]): 30.9 ± 1.5%; AChE % inhibition at 20 µM (AChE from electric eel): 10.1 ± 0.4%
O=C1CC(c2ccccc2)=NN1c1ccc(Cl)cc1 [Compound M3] | – | 26.9 ± 1% | inhibition at 20 µM (BuChE from horse serum; [1]): 25.4 ± 5.4%
CCCc1cc(OS(=O)(=O)F)n(-c2ccc(Cl)cc2)n1 [Compound K24] | 4.59 ± 0.06 µM | 41.8 ± 0.2% | –

Structure (SMILES) | IC50 (BuChE from horse serum) | inhibition at 20 µM (AChE from electric eel) | further results
CCCc1cc(OS(=O)(=O)F)n(-c2ccc(OC)cc2)n1 [Compound K25] | 3.47 ± 0.04 µM | 10.3 ± 0.6% | –
Cc1cccc(-n2nc(C)cc2OS(=O)(=O)F)c1 [Compound K17] | 19.2 ± 0.69 µM | 33.4 ± 1.3% | –
CN1C(C(=O)Nc2ccccn2)=C(O)c2ccccc2S1(=O)=O [Piroxicam] | – | – | Papp (in vitro): 2.23 ×10⁻⁶ cm/s
CC(C)c1cc(OS(=O)(=O)F)n(-c2ccc(F)cc2)n1 [Compound K21] | 6.9 ± 0.42 µM | – | IC50 (AChE from electric eel): 7.79 ± 0.07 µM
Cc1cc(OS(=O)(=O)F)n(-c2ccc(C)c(C)c2)n1 [Compound K18] | 3.31 ± 0.7 µM | 8.1 ± 0.5% | –
Cc1cc(OS(=O)(=O)F)n(-c2ccc(F)cc2)n1 [Compound K14] | 5.5 ± 0.09 µM | 48.2 ± 1% | –
O=S(=O)(F)Oc1cc(-c2ccccc2)nn1-c1ccccc1 [Compound K1] | 2.28 ± 0.64 µM | 33.6 ± 1.6% | –
Cc1nn(-c2ccccn2)c(OS(=O)(=O)F)c1C [Compound K12] | – | – | BuChE % inhibition at 20 µM (BuChE from horse serum; [1]): 20.7 ± 1.7%; AChE % inhibition at 20 µM (AChE from electric eel): 42.8 ± 0.8%
Cc1ccc(-n2nc(C(C)C)cc2OS(=O)(=O)F)cc1 [Compound K22] | 18 ± 0.34 µM | – | IC50 (AChE from electric eel): 2.6 ± 0.27 µM
O=S(=O)(F)Oc1cc(-c2ccccc2)nn1C1CCCCC1 [Compound K8] | 5.84 ± 0.87 µM | 25.1 ± 1.2% | –
Cc1cc(OS(=O)(=O)F)n(-c2ccc(Br)cc2)n1 [Compound K16] | 7.64 ± 0.41 µM | 37.2 ± 0.7% | –
O=S(=O)(F)Oc1cc(-c2ccccc2)n[nH]1 [Compound K10] | 6.92 ± 1.41 µM | 32 ± 1.2% | –
Cc1ccc(N2N=C(c3ccccc3)CC2=O)cc1C [Compound M4] | – | 10.7 ± 1.9% | inhibition at 20 µM (BuChE from horse serum; [1]): 44.1 ± 13.8%
Cc1cc(OS(=O)(=O)F)n(-c2ccccc2)n1 [Compound K13] | 9.16 ± 0.53 µM | 37.5 ± 1.4% | –
O=S(=O)(F)Oc1cc(-c2ccccc2)nn1-c1ccc(F)cc1 [Compound K2] | 1.73 ± 0.62 µM | 27.5 ± 2.7% | –
O=S(=O)(F)Oc1cc(C2CC2)nn1-c1ccccc1 [Compound K26] | 14.4 ± 1.08 µM | – | IC50 (AChE from electric eel): 4.82 ± 0.07 µM
